Data as given in PubChem BioAssay AID330 (DTP/NCI, 2004).
Values joined by “and” are separate entries in the source; they are usually repeats but may differ in a detail not shown here. Equal entries are not always repeated. Toxic doses and inconclusive results are not listed.

System: P388 leukemia ip, CD2F1 mice, survival T/C
Assay: NCI In Vivo Anticancer Drug Screen. Data for tumor model P388 Leukemia (intraperitoneal) in CD2F1 (CDF1) mice
Conditions: endpoint: median survival time, higher = longer survival
In short: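 Mice carrying the transplanted tumor received test compound or vehicle. Survival was recorded in each group, and the value is the treated-group measurement divided by that of the vehicle-treated control group.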

[1] = dose: 50.0 mg/kg/injection, schedule: Q01DX005 (ip), vehicle: saline
[2] = dose: 100.0 mg/kg/injection, schedule: Q01DX005 (ip), vehicle: saline
[3] = dose: 200.0 mg/kg/injection, schedule: Q01DX005 (ip), vehicle: saline
[4] = dose: 50.0 mg/kg/injection, schedule: Q04DX003 (ip), vehicle: saline with Tween-80
[5] = dose: 100.0 mg/kg/injection, schedule: Q04DX003 (ip), vehicle: saline with Tween-80
[6] = dose: 6.25 mg/kg/injection, schedule: Q01DX009 (ip), vehicle: saline with Tween-80
[7] = dose: 12.5 mg/kg/injection, schedule: Q01DX009 (ip), vehicle: saline with Tween-80
[8] = dose: 25.0 mg/kg/injection, schedule: Q01DX009 (ip), vehicle: saline with Tween-80
[9] = dose: 100.0 mg/kg/injection, schedule: Q04DX003 (ip), vehicle: saline
[10] = dose: 200.0 mg/kg/injection, schedule: Q04DX003 (ip), vehicle: saline
[11] = dose: 50.0 mg/kg/injection, schedule: Q01DX009 (ip), vehicle: saline with Tween-80
[12] = dose: 50.0 mg/kg/injection, schedule: Q01DX005 (ip), vehicle: saline with Tween-80
[13] = dose: 100.0 mg/kg/injection, schedule: Q01DX005 (ip), vehicle: saline with Tween-80
[14] = dose: 200.0 mg/kg/injection, schedule: Q01DX005 (ip), vehicle: saline with Tween-80
[15] = dose: 50.0 mg/kg/injection, schedule: Q01DX009 (ip), vehicle: other
[16] = dose: 100.0 mg/kg/injection, schedule: Q01DX009 (ip), vehicle: other
[17] = dose: 200.0 mg/kg/injection, schedule: Q01DX001 (ip), vehicle: Klucel (hydroxypropylcellulose) (HPC)
[18] = dose: 50.0 mg/kg/injection, schedule: Q01DX005 (ip), vehicle: Klucel (hydroxypropylcellulose) (HPC)
[19] = dose: 100.0 mg/kg/injection, schedule: Q01DX005 (ip), vehicle: Klucel (hydroxypropylcellulose) (HPC)
[20] = dose: 200.0 mg/kg/injection, schedule: Q01DX005 (ip), vehicle: Klucel (hydroxypropylcellulose) (HPC)
[21] = dose: 50.0 mg/kg/injection, schedule: Q01DX009 (ip), vehicle: saline
[22] = dose: 100.0 mg/kg/injection, schedule: Q01DX009 (ip), vehicle: saline
[23] = dose: 200.0 mg/kg/injection, schedule: Q01DX009 (ip), vehicle: saline

[N-]=[N+]=NCC1OC(n2cnc3c(=O)[nH]c(N)nc32)C(O)C1O (stereo not drawn)
T/C (dose: 60.0 mg/kg/injection, schedule: Q01DX005 (ip), vehicle: Klucel (hydroxypropylcellulose) (HPC)): 107 % of control
T/C (dose: 120.0 mg/kg/injection, schedule: Q01DX005 (ip), vehicle: Klucel (hydroxypropylcellulose) (HPC)): 107 % of control
T/C (dose: 240.0 mg/kg/injection, schedule: Q01DX005 (ip), vehicle: Klucel (hydroxypropylcellulose) (HPC)): 106 % of control

Nc1cc2[nH]ccc2c(=O)[nH]1
T/C [1]: 108 % of control
T/C [2]: 113 % of control
T/C [3]: 114 % of control

CCNC(C)(C)C(SS)c1ccc(C(F)(F)F)cc1 (stereo not drawn)
T/C (dose: 12.5 mg/kg/injection, schedule: Q04DX003 (ip), vehicle: saline with Tween-80): 100 % of control
T/C (dose: 25.0 mg/kg/injection, schedule: Q04DX003 (ip), vehicle: saline with Tween-80): 110 % of control
T/C [4]: 110 % of control
T/C [5]: 100 % of control
T/C (dose: 400.0 mg/kg/injection, schedule: Q04DX003 (ip), vehicle: saline with Tween-80): 109 % of control

OCC1C=CCC1 (stereo not drawn)
T/C [6]: 99 % of control
T/C [7]: 101 % of control
T/C [8]: 90 % of control

COc1ccc(CCN2C(=O)C(=O)N(c3cccc(Cl)c3)C2=O)cc1OC
T/C (dose: 100.0 mg/kg/injection, schedule: Q01DX009 (ip), vehicle: Klucel (hydroxypropylcellulose) (HPC)): 86 % of control
T/C (dose: 200.0 mg/kg/injection, schedule: Q01DX009 (ip), vehicle: Klucel (hydroxypropylcellulose) (HPC)): 92 % of control

COC(=O)C(C(=O)OC)=S1C(Cl)=CC=C1Cl
T/C [9]: 108 % of control
T/C [10]: 104 % of control
T/C (dose: 400.0 mg/kg/injection, schedule: Q04DX003 (ip), vehicle: saline): 106 % of control

O=C(/C=C/c1ccc(Cl)c(Cl)c1)/C=C/c1ccc(Cl)c(Cl)c1
T/C [11]: 87 % of control
T/C (dose: 100.0 mg/kg/injection, schedule: Q01DX009 (ip), vehicle: saline with Tween-80): 100 % of control
T/C (dose: 200.0 mg/kg/injection, schedule: Q01DX009 (ip), vehicle: saline with Tween-80): 87 % of control

C=C1CC23CCC4C(C)(C(=O)O)CCCC4(C)C2CCC1C3 (stereo not drawn)
T/C [12]: 116 % of control
T/C [13]: 116 % of control
T/C [14]: 117 % of control
T/C (dose: 400.0 mg/kg/injection, schedule: Q01DX005 (ip), vehicle: saline with Tween-80): 107 % of control

Cc1[nH]nc2c(NCc3ccco3)ncnc12
T/C (dose: 25.0 mg/kg/injection, schedule: Q04DX003 (ip), vehicle: saline): 98 % of control
T/C (dose: 50.0 mg/kg/injection, schedule: Q04DX003 (ip), vehicle: saline): 104 % of control
T/C [9]: 101 % of control
T/C [10]: 95 % of control

COc1cc([C@@H]2c3cc4c(cc3[C@H](O)[C@@H](CO)[C@@H]2C(=O)O)OCO4)cc(OC)c1OC
T/C [1]: 90 % of control
T/C [2]: 94 % of control
T/C [3]: 93 % of control

O=C(NC(Cc1cccs1)C(=O)O)c1ccccc1 (stereo not drawn)
T/C (dose: 25.0 mg/kg/injection, schedule: Q01DX009 (ip), vehicle: other): 102 % of control
T/C [15]: 96 % of control
T/C [16]: 102 % of control

CC/C(=C(/CC)c1ccc(OCC(=O)N/N=C2\CCC3C4CCc5cc(O)ccc5C4CCC23C)cc1)c1ccc(OCC(=O)N/N=C2/CCC3C4CCc5cc(O)ccc5C4CCC23C)cc1 (stereo not drawn)
T/C (dose: 3.12 mg/kg/injection, schedule: Q01DX001 (ip), vehicle: Klucel (hydroxypropylcellulose) (HPC)): 100 % of control
T/C (dose: 6.25 mg/kg/injection, schedule: Q01DX001 (ip), vehicle: Klucel (hydroxypropylcellulose) (HPC)): 102 % of control
T/C (dose: 12.5 mg/kg/injection, schedule: Q01DX001 (ip), vehicle: Klucel (hydroxypropylcellulose) (HPC)): 97 % of control
T/C (dose: 50.0 mg/kg/injection, schedule: Q01DX001 (ip), vehicle: Klucel (hydroxypropylcellulose) (HPC)): 91 % of control
T/C [17]: 87 % of control

Cc1c2occc2cc2c1oc(=O)c1cnccc12
T/C [18]: 105 % of control
T/C [19]: 100 % of control
T/C [20]: 98 % of control

CC(=O)c1c(O)c2ccc(Cl)cc2[nH]c1=O
T/C [12]: 99 % of control
T/C [13]: 96 % of control
T/C [14]: 99 % of control

Cc1ccc(-c2c3c(c(-c4ccc(C)cc4)c(-c4ccccc4)c2-c2ccccc2)-c2ccccc2C3)cc1
T/C [7]: 98 % of control
T/C [8]: 98 % of control
T/C [11]: 99 % of control and 89 % of control

Cc1c2oc3c(C)ccc(C(=O)NCCc4ccccc4)c3nc-2c(C(=O)NCCc2ccccc2)c(N)c1=O
T/C (dose: 50.0 mg/kg/injection, schedule: Q04DX003 (ip), vehicle: DMSO): 92 % of control
T/C (dose: 100.0 mg/kg/injection, schedule: Q04DX003 (ip), vehicle: DMSO): 91 % of control
T/C (dose: 200.0 mg/kg/injection, schedule: Q04DX003 (ip), vehicle: DMSO): 90 % of control

COC(=O)C1=CO[C@@H](OC2OC(CO)C(O)C(O)C2O)[C@@H]2[C@@H](C)[C@@H](O)[C@@H](O)[C@]12O (stereo partly drawn)
T/C (dose: 25.0 mg/kg/injection, schedule: Q01DX005 (ip), vehicle: saline): 102 % of control
T/C [1]: 102 % of control
T/C [2]: 100 % of control
T/C [3]: 108 % of control

CCOC(=O)C(C)OC1CCCCO1 (stereo not drawn)
T/C [15]: 105 % of control
T/C [16]: 95 % of control
T/C (dose: 200.0 mg/kg/injection, schedule: Q01DX009 (ip), vehicle: other): 96 % of control

O=C1SC/C(=N\N=c2/scc(-c3ccccc3)n2-c2ccc(Br)cc2)N1Cc1ccccc1
T/C (dose: 100.0 mg/kg/injection, schedule: Q04DX002 (ip), vehicle: Klucel (hydroxypropylcellulose) (HPC)): 86 % of control
T/C (dose: 200.0 mg/kg/injection, schedule: Q04DX002 (ip), vehicle: Klucel (hydroxypropylcellulose) (HPC)): 91 % of control

CON1C(=O)C(c2ccccc2)c2ccccc21 (stereo not drawn)
T/C (dose: 60.0 mg/kg/injection, schedule: Q01DX005 (ip), vehicle: saline with Tween-80): 106 % of control
T/C (dose: 120.0 mg/kg/injection, schedule: Q01DX005 (ip), vehicle: saline with Tween-80): 96 % of control
T/C (dose: 240.0 mg/kg/injection, schedule: Q01DX005 (ip), vehicle: saline with Tween-80): 96 % of control

CCc1cc2c(cc1-c1csc(C/C(N)=N/O)n1)C(C)(C)CCC2(C)C
T/C [21]: 104 % of control
T/C [22]: 103 % of control
T/C [23]: 100 % of control

Cc1ccnc(NS(=O)(=O)c2ccc(NC(=O)Nc3ccc(Cl)c(C(F)(F)F)c3)cc2)n1
T/C [18]: 99 % of control
T/C [19]: 104 % of control
T/C [20]: 96 % of control

COC1C(/C=C/C(C)=O)OC2OC(C)(C)OC21 (stereo not drawn)
T/C (dose: 25.0 mg/kg/injection, schedule: Q01DX009 (ip), vehicle: saline): 106 % of control
T/C [21]: 107 % of control and 112 % of control

N#CC1CCCC(c2ccccc2)(C2CCCCC2)C1=O (stereo not drawn)
T/C (dose: 100.0 mg/kg/injection, schedule: Q01DX001 (ip), vehicle: Klucel (hydroxypropylcellulose) (HPC)): 99 % of control
T/C [17]: 97 % of control
T/C (dose: 400.0 mg/kg/injection, schedule: Q01DX001 (ip), vehicle: Klucel (hydroxypropylcellulose) (HPC)): 103 % of control

Nc1nc2ccc(CNc3ccc(C(=O)NC(CCC(=O)O)C(=O)O)cc3)nc2c(=O)[nH]1 (stereo not drawn)
T/C [4]: 102 % of control
T/C [5]: 155 % of control

CCCCOc1cc(C(=O)NCCN(CC)CC)c2ccccc2n1
T/C [6]: 100 % of control
T/C [7]: 113 % of control
T/C [8]: 100 % of control

CC(=O)NC(Cc1ccsc1)C(=O)O (stereo not drawn)
T/C [21]: 108 % of control
T/C [22]: 92 % of control
T/C [23]: 99 % of control

CCCCCCC(O)C(CCCCCC)[Se]C (stereo not drawn)
T/C [4]: 104 % of control
T/C [5]: 106 % of control and 115 % of control
T/C (dose: 200.0 mg/kg/injection, schedule: Q04DX003 (ip), vehicle: saline with Tween-80): 100 % of control

Nc1ncc2[nH]c(=O)[nH]c2n1
T/C [12]: 101 % of control
T/C [13]: 100 % of control
T/C [14]: 99 % of control

CN(Cc1ccccc1)C1=CC(=O)C(N(C)Cc2ccccc2)=CC1=O
T/C [12]: 105 % of control
T/C [13]: 115 % of control
T/C [14]: 101 % of control
